From patent US10414797B2, “Gelatinase inhibitors and use thereof” (Iproteos S.L, priority 2015, dated 2019) come the findings set out here.

Molecules are shown by their SMILES. Where a SMILES comes first, the peptide text is derived from it. [ ]: non-standard residue; d: D form. The star is where a group is joined. ξ: configuration not given here. NMeW = CN[C@@H](Cc1c[nH]c2ccccc12)C(=O)O; Benzoyl(3,5-F2) = O=C(c1cc(F)cc(F)c1)*; NMeIle(3ξ) = CCC(C)[C@H](NC)C(=O)O; NMeF = CN[C@@H](Cc1ccccc1)C(=O)O; NMeQ = CN[C@@H](CCC(N)=O)C(=O)O; NMeL = CN[C@@H](CC(C)C)C(=O)O; NMeA = CN[C@@H](C)C(=O)O; Dab = NCC[C@H](N)C(=O)O; Hexanoyl = CCCCCC(=O)*; Butyryl = CCCC(=O)*; Bz = O=C(c1ccccc1)*; NHOH = ON* Where only a bound is given, the exact number is not on record here.

Series [1] concerns the target MMP-3 (Homo sapiens (Human), UniProt P08254). As to the kind of experiment: MMP-3 inhibition assay (fluorogenic peptide substrate). To be noted: recombinant MMP-3 7.7 nM, Mca-RPKPVE-Nval-WRK(Dnp)-NH2 10 μM, 4 hours at room temperature; tested at 1, 10, 100 and 200 μM. It is filed as biochemical. The procedure: (§1) All the experiments were done in 1× reaction buffer, which was obtained from a 10× reaction buffer solution. The content of the 10× reaction buffer was: 50 mL of 0.5 M Tris-HCl, 1.5 M NaCl, 50 mM CaCl2 and 2 mM sodium azide at pH 7.6. To obtain the 1× reaction buffer 4 mL of the 10× reaction buffer were diluted in 36 mL of H2O.
Recombinant MMP-3 expressed in E. Coli was obtained from Merck-Millipore (catalog number 44217). Mca-RPKPVE-Nval-WRK(Dnp)-NH2 (fluorogenic peptide substrate) was obtained from R&D Systems (catalog number ES002).
Preparation of the MMP-3 for the activity assay: MMP-3 was provided as a stock solution (0.1 mg/mL). The enzyme was diluted in water to a final concentration of 0.005 mg/mL.
MMP-3 peptide substrate was provided as a stock solution in DMSO (4.5 mM). For the assay, the substrate was diluted 1× reaction buffer to a concentration of 100 μM.
Procedure: The enzymatic assays were performed in 96-well microtiter plate, which allowed simultaneous monitoring of multiple reactions. For each reaction, 84.6 μL of 1× reaction buffer (pH 7.6), 3.4 μL of MMP-3 (final concentration 7.7 nM) and 2 μL of the corresponding new compound were added to each well. A stock solution of new compound was prepared in DMSO (100 mM), and dilutions were prepared from this stock solution with DMSO. Finally, to the mixture contained in each well 10 μL of the substrate were added (final concentration 10 μM). The reaction was incubated for 4 hours at room temperature in an orbital shaker (90 rpm).
(§2) The inhibitory activity of the new compound was measured fluorimetrically. The excitation and emission wavelengths were 320 and 405 nm, respectively.
(§3) Inhibitory activity at several concentration points (1, 10, 100 and 200 μM) were measured for each compound. The inhibitory activity on MMP-1, MMP-3 and MMP-7 was calculated according to eq 1 and The IC50 value was calculated as explained above for MMP-2 and MMP-9.

The target in series [2] is MMP-1 (Homo sapiens (Human), UniProt P03956). As to the kind of experiment: MMP-1 inhibition assay (fluorogenic peptide substrate). It is filed as biochemical. To be noted: recombinant MMP-1 5.52 nM, Mca-PLGL-Dpa-AR-NH2 10 μM, 4 hours at room temperature; tested at 1, 10, 100 and 200 μM. The procedure:
as §1
Recombinant MMP-1 expressed in E. Coli was obtained from Enzo Life Sciences (catalog number BML-SE180). Mca-PLGL-Dpa-AR-NH2 (fluorogenic peptide substrate) was obtained from R&D Systems (catalog number ES001).
Preparation of the MMP-1 for the activity assay: MMP-1 was provided as a stock solution (0.55 mg/mL). The enzyme was diluted in 1× reaction buffer to a final concentration of 276 nM.
MMP-1 peptide substrate was provided as a stock solution in DMSO (6 mM). For the assay, the substrate was diluted 1× reaction buffer to a concentration of 100 μM.
Procedure: The enzymatic assays were performed in 96-well microtiter plate, which allowed simultaneous monitoring of multiple reactions. For each reaction, 86 μL of 1× reaction buffer (pH 7.6), 2 μL of MMP-1 (final concentration 5.52 nM) and 2 μL of the corresponding new compound were added to each well. A stock solution of the new compound was prepared in DMSO (100 mM), and dilutions were prepared from this stock solution with DMSO. Finally, to the mixture contained in each well 10 μL of the substrate were added (final concentration 10 μM). The reaction was incubated for 4 hours at room temperature in an orbital shaker (100 rpm).
as §2, §3

Series [3] is described as follows: Parallel artificial membrane permeability assay (PAMPA), Blood-Brain Barrier. It is filed as in vitro ADME. As to conditions: initial concentration 200 μM, pH 7.4, 4 hours; for Papp at 4 h, 200 µM: pig, read-out: Effective permeability Pe. The procedure: Parallel Artificial Membrane Permeability Assay (PAMPA)
Parallel artificial membrane permeability assay (PAMPA) described in Kansy et al., J. M. Chem. 1998; 41(7):1007-10 was used here to determine the capacity of compounds to cross the Blood-Brain Barrier (BBB) by passive diffusion (Di L et al., Eur. J. Med. Chem. 2003; 38(3):223-32). The effective permeability (Pe) of the compounds was measured at an initial concentration of 200 μM. The buffer solution was prepared from a commercial concentrated one following the manufacturer's instructions. pH was adjusted to 7.4 using a 0.5 M NaOH solution. A stock solution of new compound was prepared in DMSO and diluted with buffer solution to a final 200 μM concentration (0.5% DMSO content). The PAMPA sandwich was separated and each donor well was filled with […] of the compound solution. The acceptor plate was placed into the donor plate, ensuring that the underside of the membrane was in contact with buffer. 4 μL of the mixture of phospholipids (20 mg/ml) in dodecane was added to the filter of each well, and 200 μL of buffer solution was added to the each acceptor well. The plate was covered and incubated at room temperature in a saturated humidity atmosphere for 4 hours under orbital agitation at 100 rpm. After 4 hours, the contents of the acceptor and donor compartments were analyzed by HPLC: 150 μL of each well from the donor plate and 150 μL of each well from the acceptor plate were transferred to HPLC vials, injecting each sample into a reverse-phase C18 column (150 mm×4.6 mm×5 μm, 100 Å) (100 μL/injection from the acceptor wells, 10 μL/injection from the donor wells and for t0 references). Transport was also confirmed using mass spectrometry (MALDI-TOF).
The phospholipid mixture used was a porcine polar brain lipid extract, provided by Avanti polar lipids, with the following composition: 12.6% phosphatidylcholine (PC), 33.1% phosphatidylethanolamine (PE), 18.5% phosphatidylserine (PS), 4.1% phosphatidylinositol (PI), 0.8% phosphatidic acid and 30.9% of other compounds.
The effective permeability (Pe) after 4 hours was calculated using equation 2 and the percentage of transport (T %) was calculated using equation 3: […]
Ca(t) is the compound concentration in the acceptor well at time t
And Cd(t0) is the compound concentration in the donor well at t0.

Usually IC50 stands for the concentration needed to halve the response being measured.

Chain of MMP-3 (P08254 100-477): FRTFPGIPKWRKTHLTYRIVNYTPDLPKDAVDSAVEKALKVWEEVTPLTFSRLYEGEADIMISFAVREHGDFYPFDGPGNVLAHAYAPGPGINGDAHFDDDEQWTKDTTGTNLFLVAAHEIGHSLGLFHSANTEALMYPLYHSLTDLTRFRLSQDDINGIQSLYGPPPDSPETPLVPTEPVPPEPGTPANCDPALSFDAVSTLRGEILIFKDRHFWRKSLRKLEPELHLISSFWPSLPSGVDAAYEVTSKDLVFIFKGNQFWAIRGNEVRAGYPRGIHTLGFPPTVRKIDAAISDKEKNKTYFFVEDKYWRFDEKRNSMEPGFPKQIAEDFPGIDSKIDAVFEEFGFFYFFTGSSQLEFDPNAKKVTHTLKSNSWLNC
Chain of MMP-1 (P03956 100-269): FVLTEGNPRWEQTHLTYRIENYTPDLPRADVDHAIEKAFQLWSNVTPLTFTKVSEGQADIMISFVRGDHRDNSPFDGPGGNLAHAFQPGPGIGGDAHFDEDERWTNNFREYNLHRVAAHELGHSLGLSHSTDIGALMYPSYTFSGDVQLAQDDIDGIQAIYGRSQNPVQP

As for `CCC(C)[C@@H](C(=O)N[C@@H](CCNC(=O)c1cc(F)cc(F)c1)C(=O)NO)N(C)C(=O)[C@@H]1CCCN1C(=O)CCN(C)C(C)=O` (stereo partly drawn) [Example 13, (2S)-1-[3-[acetyl(methyl)amino]propanoyl]-N-[(1S)-1-[[(1S)-3-[(3,5-difluorobenzoyl)amino]-1-(hydroxycarbamoyl)propyl]carbamoyl]-2-methyl-butyl]-N-methyl-pyrrolidine-2-carboxamide], the IC50 in series [1] and in series [2] was 200 µM each time.

As for `CCCC(=O)N1CCC[C@H]1C(=O)N(C)[C@H](C(=O)N[C@@H](CCNC(=O)c1cc(F)cc(F)c1)C(=O)NO)C(C)CC` (stereo partly drawn) [Example 4, (2S)-1-butanoyl-N-[(1S)-1-[[(1S)-3-[(3,5-difluorobenzoyl)amino]-1-(hydroxycarbamoyl)propyl]carbamoyl]-2-methyl-butyl]-N-methyl-pyrrolidine-2-carboxamide], in series [3], the “percentage of transport % T” value was 3.1% and the Papp at 4 h, 200 µM came out at 0.74 ×10⁻⁶ cm/s. Moreover, in series [1], the IC50 came to 13.3 µM. Also, the IC50 in series [2] was found to be 4.73 µM.

As to `CCC(C)[C@@H](C(=O)N[C@@H](CCNC(=O)c1ccc(F)cc1)C(=O)NO)N(C)C(=O)[C@@H]1CCCN1C(C)=O` (stereo partly drawn) [Example 1, (2S)-1-acetyl-N-[(1S)-1-[[(1S)-3-[(4-fluorobenzoyl)amino]-1-(hydroxycarbamoyl)propyl]carbamoyl]-2-methyl-butyl]-N-methyl-pyrrolidine-2-carboxamide], in series [3], the “percentage of transport % T” value is recorded as 0.4% and the Papp at 4 h, 200 µM worked out at 0.094 ×10⁻⁶ cm/s. Moreover, the IC50 in series [1] amounted to 30.1 µM. Moreover, the “MMP-1 IC50” value in series [2] is below 1 µM.

Take `CCC(C)[C@@H](C(=O)N[C@@H](CCNC(=O)c1cc(F)cc(F)c1)C(=O)NO)N(C)C(=O)[C@@H]1CCCN1C(=O)[C@H](Cc1ccccc1)N(C)C(C)=O` (stereo partly drawn) [Example 11, (2 S)-1-[(2S)-2-[acetyl(methyl)amino]-3-phenyl-propanoyl]-N-[(1S)-1-[[(1S)-3-[(3,5-difluorobenzoyl)amino]-1-(hydroxycarbamoyl)propyl]carbamoyl]-2-methyl-butyl]-N-methyl-pyrrolidine-2-carboxamide] (Ac-[NMeF]P[NMeIle(3ξ)][Dab](Benzoyl(3,5-F2))-{NHOH}): the IC50 amounted to 200 µM in series [1] and 9.13 µM in series [2].

For the molecule `CCC(C)[C@@H](C(=O)N[C@@H](CCNC(=O)c1cc(F)cc(F)c1)C(=O)NO)N(C)C(=O)[C@@H]1CCCN1C(C)=O` (stereo partly drawn) [Example 2, (2S)-1-acetyl-N-[(1S)-1-[[(1S)-3-[(3,5-difluorobenzoyl)amino]-1-(hydroxycarbamoyl)propyl]carbamoyl]-2-methyl-butyl]-N-methyl-pyrrolidine-2-carboxamide], in series [3], the “percentage of transport % T” value is reported as 0.8% and the Papp at 4 h, 200 µM was 0.2 ×10⁻⁶ cm/s. In addition, the IC50 in series [1] turned out to be 19.2 µM. For the same molecule, the IC50 in series [2] came out at 4.94 µM.

`CCCCCC(=O)N1CCC[C@H]1C(=O)N(C)[C@H](C(=O)N[C@@H](CCNC(=O)c1ccccc1)C(=O)NO)C(C)CC` (stereo partly drawn) [Example 15, (2S)—N-[(1S)-1-[[(1S)-3-benzamido-1-(hydroxycarbamoyl)propyl]carbamoyl]-2-methyl-butyl]-N-methyl-1-hexanoyl-pyrrolidine-2-carboxamide] (Hexanoyl-Pro-[NMeIle(3ξ)]-[Dab](Bz)-{NHOH}): the “percentage of transport % T” value in series [3] is 2.3%. In series [3], the Papp at 4 h, 200 µM turned out to be 1.1 ×10⁻⁶ cm/s. The IC50 was found to be 9.89 µM in series [1] and 10.8 µM in series [2].

`CCC(C)[C@@H](C(=O)N[C@@H](CCNC(=O)c1cc(F)cc(F)c1)C(=O)NO)N(C)C(=O)[C@@H]1CCCN1C(=O)[C@H](C)N(C)C(C)=O` (stereo partly drawn) [Example 12, (2 S)-1-[(2S)-2-[acetyl(methyl)amino]propanoyl]-N-[(1S)-1-[[(1S)-3-[(3,5-difluorobenzoyl)amino]-1-(hydroxycarbamoyl)propyl]carbamoyl]-2-methyl-butyl]-N-methyl-pyrrolidine-2-carboxamide] (Ac-[NMeA]P[NMeIle(3ξ)][Dab](Benzoyl(3,5-F2))-{NHOH}): the IC50 turned out to be 157 µM in series [1] and 14.9 µM in series [2].

As for `CC(=O)N1CCC[C@H]1C(=O)N(C)[C@@H](CCC(N)=O)C(=O)N[C@@H](Cc1c[nH]c2ccccc12)C(=O)NO` [Example C20, (2S)-2-[[(2S)-1-acetylpyrrolidine-2-carbonyl]-methyl-amino]-N-[(1S)-2-(hydroxyamino)-1-(1H-indol-3-ylmethyl)-2-oxo-ethyl]pentanediamide, reference compound] (Ac-Pro-[NMeQ]-Trp-{NHOH}), the IC50 in series [1] and in series [2] was above 2000 µM in each case.

For `CCCC(=O)N(C)[C@@H](Cc1c[nH]c2ccccc12)C(=O)N(C)[C@@H](CC(C)C)C(=O)N1CCC[C@H]1C(=O)N(C)[C@H](C(=O)N[C@@H](CCNC(=O)c1cc(F)cc(F)c1)C(=O)NO)C(C)CC` (stereo partly drawn) [Example 14, (2S)-1-[(2S)-2-[[(2S)-2-[butanoyl(methyl)amino]-3-(1H-indol-3-yl)propanoyl]-methyl-amino]-4-methyl-pentanoyl]-N-[(1S)-1-[[(1S)-3-[(3,5-difluorobenzoyl)amino]-1-(hydroxycarbamoyl)propyl]carbamoyl]-2-methyl-butyl]-N-methyl-pyrrolidine-2-carboxamide] (Butyryl-[NMeW][NMeL]P[NMeIle(3ξ)][Dab](Benzoyl(3,5-F2))-{NHOH}), the “MMP-3 IC50” value in series [1] is below 1 µM. Moreover, the IC50 in series [2] came to 6.07 µM.

Consider `CC(=O)N1CCC[C@H]1C(=O)N[C@@H](CCC(N)=O)C(=O)N[C@@H](Cc1c[nH]c2ccccc12)C(=O)NO` [Example C17, (2S)-2-[[(2S)-1-acetylpyrrolidine-2-carbonyl)amino]-N-[(1S)-2-(hydroxyamino)-1-(1H-indol-3-ylmethyl)-2-oxo-ethyl]pentanediamide, reference compound] (Ac-Pro-Gln-Trp-{NHOH}), for which the IC50 was determined as 3.1 µM in series [1] and 6.1 µM in series [2].
